Results reported in patent publication US20250326772A1, “MRGPRX2 ANTAGONISTS, PHARMACEUTICAL COMPOSITION INCLUDING MRGPRX2 ANTAGONIST, AND METHOD OF TREATING MRGPRX2-MEDIATED DISEASE OR DISORDER” (KYORIN PHARMACEUTICAL CO., LTD., priority 2024, published 2025).

biological target: T1, MRGPRX2 (Homo sapiens, UniProt Q96LB1); test: MRGPRX2 reporter cell assay (NFAT-RE luciferase, Substance P stimulation); type: cell-based; conditions: U2OS cells stably transfected with MRGPRX2 and NFAT-RE luciferase reporter; Substance P at EC80; class symbols
T1 sequence (Q96LB1 1-330): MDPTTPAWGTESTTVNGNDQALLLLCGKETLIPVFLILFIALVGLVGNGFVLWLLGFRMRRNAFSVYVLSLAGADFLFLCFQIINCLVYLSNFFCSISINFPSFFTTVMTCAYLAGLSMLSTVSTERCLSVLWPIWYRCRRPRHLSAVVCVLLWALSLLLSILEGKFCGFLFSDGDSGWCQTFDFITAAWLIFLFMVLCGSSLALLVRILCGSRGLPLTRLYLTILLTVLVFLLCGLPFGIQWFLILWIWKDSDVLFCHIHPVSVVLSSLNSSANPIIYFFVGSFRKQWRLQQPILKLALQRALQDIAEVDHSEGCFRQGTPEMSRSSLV
Protocol: MRGPRX2 Reporter Cell Assays U2OS cells (ATCC, Manassas, VA) were stably transfected with MRGPRX2 expression clones (GeneCopoeia, Rockville, MD) and the pGL4.30 [luc2P/NFAT-RE/Hygro] reporter plasmid (Promega, Madison, WI). Clonal cells were maintained in Growth Media (McCoy's 5A, 10% FBS, 495 μg/ml hygromycin, 2 μg/ml puromycin, 100 units/ml penicillin, and 100 ug/ml streptomycin). The day before assay, cells were plated to white 384-well microplates at 3000 (MRGPRX2) cells/well in 10 ul Assay Media (McCoy's 5A, 2% charcoal dextran stripped FBS, 100 units/ml penicillin, and 100 ug/ml streptomycin) (Gibco, Thermo Fisher) and allowed to adhere overnight. The following day, serially diluted compound stocks were added directly to the cells (final DMSO concentration of 0.5%) and pre-incubated for 30 minutes at 37° C., 5% CO2. The final concentration of Substance P (Tocris, Minneapolis, MN, or PEPTIDE INSTITUTE, Osaka, Japan) corresponding to EC80 was added to stimulate the (MRGPRX2) cells. Cells were returned to the incubator for 6 hrs, after which 5 ul of ONE-GLO substrate (Promega) was added. Luminescence was read within 15 minutes (BioTek, Winooski, VT or infinite M1000Pro, Tecan Japan, Kanagawa, Japan). Percent inhibition for each test compound was calculated using the formula: […] where: • A=the luminescence count of the “test compound” well • B=the median luminescence count of the “Vehicle (0.5% DMSO)” wells • C═the median luminescence count of the “Vehicle (0.5% DMSO)+5 uM of substance P” wells The mean percent inhibition of each concentration of “test compound” was used to generate dose-response curves. IC50 values were calculated using a four-parameter logistic fit to the data using GraphPad Prism software. • +++: […]

Row | Structure (SMILES) | IC50 [nM]
1 | COc1ccc(F)cc1-c1[nH]c2ncccc2c1-c1cc(C)ccc1F [EX. 21, 2-(5-fluoro-2-methoxy-phenyl)-3-(2-fluoro-5-methyl-phenyl)-1H-pyrrolo[2,3-b]pyridine] | < 10
2 | COc1ccc(F)cc1-c1[nH]c2nccc(F)c2c1-c1ccccc1C#N [EX. 27] | < 10
3 | [2H]c1c([2H])c([2H])c(-c2[nH]c3nccc(F)c3c2-c2ccccc2C#N)c(O)c1[2H] [EX. 45] | < 10
4 | N#Cc1ccccc1-c1c(-c2cnn3c2OCCC3)[nH]c2ncccc12 [EX. 50] | < 10
5 | COc1ccsc1-c1[nH]c2ncccc2c1-c1ccccc1C#N [EX. 53] | < 10
6 | N#Cc1ccccc1-c1c(-c2cc(F)ccc2O)[nH]c2ncccc12 [EX. 54] | < 10
7 | N#Cc1ccccc1-c1c(-c2c[nH]nc2C(F)F)[nH]c2ncccc12 [EX. 71] | < 10
8 | N#Cc1ccccc1-c1c(-c2csnc2C(F)F)[nH]c2ncccc12 [EX. 75] | < 10
9 | N#Cc1ccccc1-c1c(-c2c[nH]nc2C(F)(F)F)[nH]c2nccc(F)c12 [EX. 77] | < 10
10 | Cc1ccnc2[nH]c(-c3c[nH]nc3C(F)(F)F)c(-c3ccccc3C#N)c12 [EX. 78] | < 10
11 | COc1ccc(C#N)c(-c2c(-c3c[nH]nc3C(F)(F)F)[nH]c3ncccc23)c1 [EX. 80] | < 10
12 | N#Cc1ccccc1-c1c(-c2cn[nH]c2C(F)F)[nH]c2nccc(F)c12 [EX. 81] | < 10
13 | [2H]c1cnc2[nH]c(-c3cn(C)nc3C(F)F)c(-c3cc(OC([2H])([2H])[2H])ccc3C#N)c2c1 [EX. 89] | < 10
14 | N#Cc1ccccc1-c1c(-c2cnn3c2OCCC3)[nH]c2nccc(F)c12 [EX. 90] | < 10
15 | N#Cc1ccccc1-c1c(-c2c[nH]nc2C(F)(F)F)[nH]c2ncccc12 [EX. 94] | < 10
16 | COc1ccc(C#N)c(-c2c(-c3c[nH]nc3C(F)F)[nH]c3ncccc23)c1 [EX. 96] | < 10

Row | Structure (SMILES) | IC50 [nM]
17 | Cc1ccc(C#N)c(-c2c(-c3cn(C)nc3C(F)F)[nH]c3ncccc23)c1 [EX. 99] | < 10
18 | Cc1ccc(C#N)c(-c2c(-c3cnn4cccnc34)[nH]c3ncccc23)c1 [EX. 100] | < 10
19 | Cc1ccc(C#N)c(-c2c(-c3c[nH]nc3C(F)F)[nH]c3ncccc23)c1 [EX. 101] | < 10
20 | COc1ccc(C#N)c(-c2c(-c3cc(F)ccc3OC)[nH]c3ncccc23)c1 [EX. 107, 2-(2-(5-fluoro-2-methoxyphenyl)-1H-pyrrolo[2,3-b]pyridin-3-yl)-4-methoxybenzonitrile] | < 10
21 | N#Cc1ccccc1-c1c(-c2ccccc2OCc2ccccc2)[nH]c2ncccc12 [EX. 109] | < 10
22 | COc1ccc(C#N)c(-c2c(-c3cn(C)nc3C(F)F)[nH]c3ncccc23)c1 [EX. 113] | < 10
23 | CCc1ccc(C#N)c(-c2c(-c3cn(C)nc3C(F)F)[nH]c3ncccc23)c1 [EX. 116] | < 10
24 | N#Cc1ccccc1-c1c(-c2ccccc2O)[nH]c2ncccc12 [EX. 122] | < 10
25 | Cn1cc(-c2[nH]c3ncccc3c2-c2ccccc2C#N)c(C(F)(F)F)n1 [EX. 128] | < 10
26 | Cc1ccc(F)c(-c2c(-c3cn(C)nc3C(F)F)[nH]c3ncccc23)c1 [EX. 133] | < 10
27 | COc1nsc(OC)c1-c1[nH]c2ncccc2c1-c1ccccc1C#N [EX. 137] | < 10
28 | COc1nn2cccnc2c1-c1[nH]c2ncccc2c1-c1ccccc1C#N [EX. 141] | < 10
29 | Cn1cc(-c2[nH]c3ncccc3c2-c2ccccc2C#N)c(C(F)F)n1 [EX. 146] | < 10
30 | CCn1cc(-c2[nH]c3ncccc3c2-c2ccccc2C#N)c(C(F)(F)F)n1 [EX. 147] | < 10
31 | N#Cc1ccccc1-c1c(-c2c[nH]nc2OC(F)F)[nH]c2ncccc12 [EX. 157] | < 10
32 | Cc1ccc(C#N)c(-c2c(-c3c[nH]nc3OC(F)F)[nH]c3ncccc23)c1 [EX. 158] | < 10

Results, then the compound that gave them:

Row | IC50 [nM] | Structure (SMILES)
33 | < 10 | Cn1cc(-c2c(-c3c(C(F)F)nn4c3OC[C@@H](NC(=O)[C@H]3C[C@H]3F)C4)[nH]c3ncccc23)c(OC(F)F)n1 (atropisomer, axis not shown) [EX. 548]
34 | < 10 | [2H]C([2H])([2H])Oc1ccc(C#N)c(-c2c(-c3c(C)nn4c3OC(C)C4)[nH]c3ncccc23)c1 (centres unmarked) [EX. 167]
35 | < 10 | [2H]C([2H])([2H])Oc1ccc(C#N)c(-c2c(-c3c(C)nn4c3NCC4)[nH]c3ncccc23)c1 [EX. 168]
36 | < 10 | [2H]C([2H])([2H])Oc1ccc(C#N)c(-c2c(-c3c(C)nn4cc[nH]c34)[nH]c3ncccc23)c1 [EX. 169]
37 | < 10 | [2H]C([2H])([2H])Oc1ccc(C#N)c(-c2c(-c3c(C)nn4c3OCCC4C)[nH]c3ncccc23)c1 (centres unmarked) [EX. 170]
38 | < 10 | [2H]C([2H])([2H])Oc1ccc(C#N)c(-c2c(-c3c(OC)nn4cccnc34)[nH]c3ncccc23)c1 [EX. 175]
39 | < 10 | [2H]C([2H])([2H])Oc1ccc(C#N)c(-c2c(-c3c(C)nn4c3OCC[C@@H]4C)[nH]c3ncccc23)c1 [EX. 176]
40 | < 10 | [2H]C([2H])([2H])Oc1ccc(C#N)c(-c2c(-c3c(C4CC4)nn4c3OCCC4)[nH]c3ncccc23)c1 [EX. 177]
41 | < 10 | [2H]C([2H])([2H])Oc1ccc(C#N)c(-c2c(-c3c(C)nn4c3OCC[C@H]4C)[nH]c3ncccc23)c1 [EX. 178]
42 | < 10 | [2H]C([2H])([2H])Oc1ccc(C#N)c(-c2c(-c3c(C)nn4cc(OC)cnc34)[nH]c3ncccc23)c1 [EX. 179]
43 | < 10 | COc1ccc(C#N)c(-c2c(-c3c(C)nn4cc(O)cnc34)[nH]c3ncccc23)c1 [EX. 181]
44 | < 10 | COc1ccc(C#N)c(-c2c(-c3c(C)nn4cc(F)cnc34)[nH]c3ncccc23)c1 [EX. 182]
45 | < 10 | COc1ccc(C#N)c(-c2c(-c3c(C(F)F)nn4c3OCC3(CC3)C4)[nH]c3ncccc23)c1 [EX. 183]
46 | < 10 | [2H]C([2H])([2H])Oc1ccc(C#N)c(-c2c(-c3c(C)nn4c3OCC(O)C4)[nH]c3ncccc23)c1 (centres unmarked) [EX. 199]
47 | < 10 | [2H]C([2H])([2H])Oc1ccc(C#N)c(-c2c(-c3c(CC)nn4c3OCCC4)[nH]c3ncccc23)c1 [EX. 200]
48 | < 10 | [2H]C([2H])([2H])Oc1ccc(C#N)c(-c2c(-c3c(C(F)F)nn4c3OCC(OC)C4)[nH]c3ncccc23)c1 (centres unmarked) [EX. 201]
49 | < 10 | [2H]C([2H])([2H])Oc1ccc(C#N)c(-c2c(-c3c(C(F)F)nn4c3OCC(O)C4)[nH]c3ncccc23)c1 (centres unmarked) [EX. 202]
50 | < 10 | N#Cc1ccccc1-c1c(-c2c(C(F)F)nn3c2OCC(O)C3)[nH]c2ncccc12 (centres unmarked) [EX. 203]
51 | < 10 | [2H]c1cnc2[nH]c(-c3c(C)nn4c3OCCC4)c(-c3cc(OC([2H])([2H])[2H])ccc3C#N)c2c1 [EX. 216]
52 | < 10 | [2H]c1cnc2[nH]c(-c3c(C)nn4c3OCC4)c(-c3cc(OC([2H])([2H])[2H])ccc3C#N)c2c1 [EX. 218]
53 | < 10 | COc1ccc(C#N)c(-c2c(-c3c(OC)nn4cccnc34)[nH]c3ncccc23)c1 [EX. 225]
54 | < 10 | COc1ccc(C#N)c(-c2c(-c3c(C)nn4c3OCCC4)[nH]c3ncccc23)c1 [EX. 227]
55 | < 10 | COc1ccc(C#N)c(-c2c(-c3c(C)nn4c3OCC4)[nH]c3ncccc23)c1 [EX. 230]
56 | < 10 | [2H]C([2H])([2H])Oc1ccc(C#N)c(-c2c(-c3c(CF)nn4c3OCCC4)[nH]c3ncccc23)c1 [EX. 235]
